# In ChEMBL document CHEMBL6182851, “Discovery of dual CDK4/6 and BRD4 inhibitor as apoptosis and autophagy inducers against NSCLC in vitro and in vivo” (Eur J Med Chem, 2025):
# Active and inactive are the calls of the source. No cut-off for these calls is given here.
# What was measured:
# [1] = tested on: NCI-H460; test: Induction of autophagy in human NCI-H460 cells assessed as reduction in intracellular AKT protein expression; type: functional, cell-based
# [2] = tested on: NCI-H460; test: Induction of autophagy in human NCI-H460 cells assessed as reduction in intracellular mTOR protein expression; type: functional, cell-based
# [3] = tested on: L02; test: Cytotoxicity against human LO2 cells assessed as inhibition of cell viability at 5 to 10 uM incubated for 48 hrs by MTT assay; type: toxicity, cell-based; details: l02, 48 h, dose 5-10 µM
# [4] = molecular target: Cyclin-dependent kinase 4 (Homo sapiens, UniProt P11802); test: Binding affinity to CDK4 in human NCI-H460 cells assessed as increase in thermal stabilization at 38 to 62 degreeC at 1 uM pretreated for 6 hrs followed by heat exposure for 3 mins and subsequently incubated at room temperature for 3 mins by CETSA; type: cell-based; details: time 366.0 min
# [5] = tested on: NCI-H460; test: Induction of apoptosis in human NCI-H460 cells assessed as early apoptotic cells at 8 uM incubated for 48 hrs by Annexin V-PE/7-AAD staining based flow cytometric analysis (reference value: 3.58 %); type: functional
# [6] = tested on: NCI-H460; test: Induction of apoptosis in human NCI-H460 cells assessed as late apoptotic cells at 2 uM incubated for 48 hrs by Annexin V-PE/7-AAD staining based flow cytometric analysis (reference value: 3.76 %); type: functional
# [7] = tested on: NCI-H460; test: Induction of apoptosis in human NCI-H460 cells assessed as late apoptotic cells at 4 uM incubated for 48 hrs by Annexin V-PE/7-AAD staining based flow cytometric analysis (reference value: 3.76 %); type: functional
# [8] = tested on: NCI-H460; test: Induction of apoptosis in human NCI-H460 cells assessed as late apoptotic cells at 8 uM incubated for 48 hrs by Annexin V-PE/7-AAD staining based flow cytometric analysis (reference value: 3.76 %); type: functional
# [9] = tested on: NCI-H460; test: Induction of apoptosis in human NCI-H460 cells assessed as necrotic cells at 8 uM incubated for 48 hrs by Annexin V-PE/7-AAD staining based flow cytometric analysis (reference value: 0.79 %); type: functional
# [10] = tested on: NCI-H460; test: Induction of cell cycle arrest in human NCI-H460 cells assessed as accumulation of cells at S phase at 2 uM incubated for 48 hrs by PI staining based flow cytometric analysis (reference value: 33.3 %); type: functional
# [11] = tested on: NCI-H460; test: Induction of cell cycle arrest in human NCI-H460 cells assessed as accumulation of cells at S phase at 4 uM incubated for 48 hrs by PI staining based flow cytometric analysis (reference value: 33.3 %); type: functional
# [12] = tested on: NCI-H460; test: Induction of autophagy in human NCI-H460 cells assessed as suspension of dead cells incubated for 12 hrs by microscopic analysis; type: functional, cell-based
# [13] = tested on: NCI-H460; test: Induction of autophagy in human NCI-H460 cells assessed as decrease in P62 expression at 2 to 8 uM incubated for 48 hrs by Western blotting analysis; type: functional, cell-based; details: dose 2-8 µM
# [14] = tested on: NCI-H460; test: Induction of autophagy in human NCI-H460 cells assessed as colocalization of LC3B site with LAMP1 protein incubated for 24 hrs by immunofluorescence analysis; type: functional, cell-based; details: dose 2-8 µM
# [15] = tested on: NCI-H460; test: Induction of autophagy in human NCI-H460 cells assessed as reduction in intracellular PI3K protein expression; type: functional, cell-based
# [16] = tested on: NCI-H460; test: Induction of autophagy in human NCI-H460 cells assessed as increase in yellow fluorescence incubated for 24 hrs by immunofluorescence analysis; type: functional, cell-based; details: dose 2-8 µM
# [17] = tested on: NCI-H460; test: Induction of autophagy in human NCI-H460 cells assessed as increase in autophagic vesicles at 4 uM incubated for 24 hrs by transmission electron microscopic analysis; type: functional, cell-based
# [18] = tested on: NCI-H460; test: Induction of autophagy in human NCI-H460 cells assessed as production of autophagic vesicles at 4 uM incubated for 24 hrs by transmission electron microscopic analysis; type: functional, cell-based
# [19] = tested on: NCI-H460; test: Induction of autophagy in human NCI-H460 cells assessed as production of autophagic lysosomes at 4 uM incubated for 24 hrs by transmission electron microscopic analysis; type: functional, cell-based
# [20] = tested on: NCI-H460; test: Induction of autophagy in human NCI-H460 cells assessed as upregulation of beclin 1 level; type: functional, cell-based
# [21] = C0 in male Sprague-Dawley rat at 5 mg/kg, iv measured up to 24 hrs by LC-MS/MS analysis; type: ADME, organism-based; details: in vivo
# [22] = AUC (0 to t) in male Sprague-Dawley rat at 5 mg/kg, iv measured up to 24 hrs by LC-MS/MS analysis; type: ADME, organism-based; details: in vivo
# [23] = Apparent volume of distribution in male Sprague-Dawley rat at 5 mg/kg, iv measured up to 24 hrs by LC-MS/MS analysis; type: ADME, organism-based; details: in vivo, read-out: Vz
# [24] = Clearance in male Sprague-Dawley rat at 5 mg/kg, iv measured up to 24 hrs by LC-MS/MS analysis; type: ADME, organism-based; details: in vivo
# [25] = MRT (0 to infinity) in male Sprague-Dawley rat at 5 mg/kg, iv measured up to 24 hrs by LC-MS/MS analysis; type: ADME, organism-based; details: in vivo
# [26] = tested on: NCI-H460; test: Antitumor activity against human NCI-H460 cells xenografted in female BALB/c nude mouse assessed as tumor growth inhibition at 25 mg/kg, ip administered for 21 consecutive days relative to control; type: functional; details: NCI-H460, 504 h, time 21 day, read-out: TGI
# [27] = tested on: NCI-H460; test: Antitumor activity against human NCI-H460 cells xenografted in female BALB/c nude mouse assessed as reduction in c-Myc expression at 50 mg/kg, ip administered for 21 consecutive days by immunohistochemical analysis; type: functional, organism-based; details: time 21.0 day
# [28] = tested on: NCI-H460; test: Cytotoxicity against human NCI-H460 cells measured up to 8 days; type: functional, cell-based; details: dose 2-8 µM, time <= 8.0 day
# [29] = tested on: L02; test: Cytotoxicity against human LO2 cells measured up to 8 days; type: toxicity, cell-based; details: l02, 192 h, time < 8 day
# [30] = tested on: NCI-H460; test: Antitumor activity against human NCI-H460 cells xenografted in female BALB/c nude mouse at 25 mg/kg, ip administered for 21 consecutive days; type: functional, organism-based; details: time 21.0 day
# [31] = tested on: NCI-H460; test: Antitumor activity against human NCI-H460 cells xenografted in female BALB/c nude mouse assessed as suppression of tumor volume at 50 mg/kg, ip administered for 21 consecutive days; type: functional, organism-based; details: time 21.0 day
# [32] = Toxicity in mouse assessed as animal mortality at 100 to 400 mg/kg, ip measured for 21 days; type: organism-based; details: in vivo, 504 h, dose 100-400 mg/kg, time 21 day
# [33] = Toxicity in mouse assessed as histological change in heart at 400 mg/kg, ip measured for 21 days by H and E staining based analysis; type: organism-based; details: in vivo, 504 h, time 21 day
# [34] = Toxicity in mouse assessed as histological change in liver at 400 mg/kg, ip measured for 21 days by H and E staining based analysis; type: organism-based; details: in vivo, 504 h, time 21 day
# [35] = Toxicity in mouse assessed as histological change in spleen at 400 mg/kg, ip measured for 21 days by H and E staining based analysis; type: organism-based; details: in vivo, 504 h, time 21 day
# [36] = Toxicity in mouse assessed as histological change in lung at 400 mg/kg, ip measured for 21 days by H and E staining based analysis; type: organism-based; details: in vivo, 504 h, time 21 day
# [37] = tested on: A549; test: cells; details: Homo sapiens, A549, 48 h
# Description: Antitumor activity against human A549 cells assessed as inhibition of cell viability incubated for 48 hrs by MTT assay
# [38] = tested on: NCI-H460; test: cells; details: Homo sapiens, NCI-H460, 48 h
# Description: Antitumor activity against human NCI-H460 cells assessed as inhibition of cell viability incubated for 48 hrs by MTT assay
# Sequence of Cyclin-dependent kinase 4 (P11802 whole entry): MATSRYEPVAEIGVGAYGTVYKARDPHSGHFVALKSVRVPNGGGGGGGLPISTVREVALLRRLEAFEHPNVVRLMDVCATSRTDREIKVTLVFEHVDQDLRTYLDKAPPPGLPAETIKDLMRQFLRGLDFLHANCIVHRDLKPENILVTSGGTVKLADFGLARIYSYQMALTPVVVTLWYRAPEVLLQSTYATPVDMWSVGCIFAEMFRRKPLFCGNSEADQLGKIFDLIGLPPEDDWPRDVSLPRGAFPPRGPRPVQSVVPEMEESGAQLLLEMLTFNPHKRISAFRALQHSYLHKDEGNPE
compound,measurement,setting,value
COc1cc(-c2nc3ccc(F)cc3c(=O)[nH]2)cc(OC)c1OCC(=O)N1CCN(c2ccc(Nc3ncc4cc(C(=O)N(C)C)n(C5CCCC5)c4n3)nc2)CC1,Activity,[1],Dose-dependent-effect
same,Activity,[2],Dose-dependent-effect
same,Activity,[3],Non-toxic
same,Activity,[4],Active
same,Activity,[5],16.9%
same,Activity,[6],4.55%
same,Activity,[7],6.56%
same,Activity,[8],3.07%
same,Activity,[9],1.17%
same,Activity,[10],27%
same,Activity,[11],18.8%
same,Activity,[12],Active; Minor Suspension Was Observed
same,Activity,[13],Active
same,Activity,[14],Dose-dependent-effect
same,Activity,[15],Dose-dependent-effect
same,Activity,[16],Dose-dependent-effect
same,Activity,[17],Active
same,Activity,[18],Active
same,Activity,[19],Active
same,Activity,[20],Active
same,C0 at 24 h,[21],6000 ng/mL
same,AUC(0-t) at 24 h,[22],3780 ng·h/mL
same,Vd,[23],14.1 L/kg
same,clearance,[24],22.3 mL/min/kg
same,MRT inf,[25],3.04 h
same,inhibition in vivo at 25 mg/kg,[26],67.8%
same,Activity,[27],Active
same,Activity,[28],Time-dependent-effect
same,Activity,[29],Non-toxic
same,Activity,[30],Active
same,Activity,[31],Active
same,Activity,[32],Non-toxic
same,Activity,[33],Non-toxic
same,Activity,[34],Non-toxic
same,Activity,[35],Non-toxic
same,Activity,[36],Non-toxic
same,IC50,[37],4.59 µM
same,IC50,[38],2.21 µM
